Data from patent US20040087561A1, “Treatment of sexual dysfunction” (priority 2000, published 2004).

Key:
[1] = system: Female New Zealand rabbits; experiment: Pelvic nerve-stimulated female genital blood flow, anaesthetised rabbit model of sexual arousal; assay type: in vivo; conditions: 15 mg/kg sc
Description: (§1) Female New Zealand rabbits (2.5 kg) were pre-medicated with a combination of Medetomidine (Domitor®) 0.5 ml/kg im., and Ketamine (Vetalar®) 0.25 ml/kg i.m. whilst maintaining oxygen intake via a face mask. The rabbits were tracheotomised using a Portex™ uncuffed endotracheal tube 3 ID., connected to ventilator and maintained at a ventilation rate of 30-40 breaths per minute, with an approximate tidal volume of 18-20 ml, and a maximum airway pressure of 10 cm H2O. Anaesthesia was then switched to Isoflurane and ventilation continued with O2 at 2 l/min. The right marginal ear vein was cannulated using a 23G or 24G catheter, and Lactated Ringer solution perfused at 0.5 ml/min. The rabbit was maintained at 3% Isoflurane during invasive surgery, dropping to 2% for maintenance anaesthesia.
The left groin area of the rabbit was shaved and a vertical incision was made approximately 5 cm in length along the thigh. […] Systolic and diastolic pressures were measured, and the mean arterial pressure calculated using the formula (diastolic ×2+systolic)÷3. Heart rate was measured via the pulse oxymeter and Po-ne-mah data acquisition software system (Ponemah Physiology Platform, Gould Instrument Systems Inc). […] A frequency response curve was determined at the start of each experiment in order to determine the optimum frequency to use as a sub-maximal response, normally 4 Hz. […]

[2] = system: conscious male rat; experiment: Penile intracavernosal pressure in the conscious male rat (telemetry); assay type: in vivo
Description: In addition to treating women with FSD, bombesin antagonists will be useful in treating male erectile dysfunction (MED. Both the non-selective BB1/2 antagonists (Compound 1; 10 mg/kg sc) and the selective BB I receptor antagonist (Compound 3; 15 mg/kg sc) is pro-erectile in a conscious rat model of penile erection (FIGS. 24 and 25). Erectile responses were recorded by measuring intracavemosal pressure using surgically implanted telemetric device. The specific details the surgical procedures, data acquisition and analysis can be found in detail in Bernabe 1999.
Compound 1 and compound 3 were dissolved in 50% O-cyclodextrin in saline. They were administered at a dose of 15 mg/kg subcutaneously (sc). […] These increases equate to penile erection. Both Compounds 1 and 3 induced a number of erections in a similar manner to those observed with apomorphine or melanotan-II—both of which are clinically proven agents that are effective in the treatment of MED. Moreover the amplitude of the increases observed were similar to those observed with apomorphine or melanotan-II. The mechanism of action is thought to be similar to the effects on female genital flow ie CNS potentiation of the descending neuronal pathways that control penile erection.

[3] = system: Male New Zealand rabbits; experiment: Pelvic nerve-stimulated penile intracavernosal pressure, anaesthetised rabbit model of erection; assay type: in vivo; conditions: Compound 3 (10 mg/kg sc) concomitant with selective PDE5 inhibitor (1 mg/kg iv), compared with same dose of Compound 3 alone
Description: as §1, with “Male” for “Female”, “(˜2.5” for “(2.5”, “i.m.,” for “im.,”, “anaesthesia. The left jugular vein was exposed, isolated and then cannulated with a PVC catheter (17G) for the infusion of drugs and compounds.” for “anaesthesia.”
The left groin area of the rabbit was shaved and a vertical incision was made approximately 5 cm in length along the thigh. […] Systolic and diastolic pressures were measured, and the mean arterial pressure calculated using the formula (diastolic ×2+systolic)[…]. Heart rate was measured via the pulse oxymeter and Po-ne-mah data acquisition software system (Ponemah Physiology Platform, Gould Instrument Systems Inc). […]

[4] = molecular target: T1, human NMB receptor (BB1) (Homo sapiens, UniProt P28336); experiment: BB1 binding assay ([125I][Tyr4]bombesin, CHO-K1 cell membranes)
T1 construct: expressed in transfected cells; host or cells: CHO-K1
T1 sequence (P28336 whole entry): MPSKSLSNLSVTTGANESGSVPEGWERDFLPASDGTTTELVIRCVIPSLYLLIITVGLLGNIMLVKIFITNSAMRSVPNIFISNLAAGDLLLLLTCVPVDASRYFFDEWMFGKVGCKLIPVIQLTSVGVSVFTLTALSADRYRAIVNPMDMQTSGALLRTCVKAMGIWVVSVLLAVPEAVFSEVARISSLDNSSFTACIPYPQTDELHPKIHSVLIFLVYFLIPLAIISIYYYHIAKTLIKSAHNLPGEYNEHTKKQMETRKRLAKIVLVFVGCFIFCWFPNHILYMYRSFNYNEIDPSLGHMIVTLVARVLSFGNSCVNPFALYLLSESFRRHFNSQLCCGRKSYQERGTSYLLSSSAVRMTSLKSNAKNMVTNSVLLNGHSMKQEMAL
Description: (§2) In the following experiments, measurement of BB1 and BB2 binding was as follows. CHO-K1 cells stably expressing cloned human NMB (for (BB1 assay) and GRP receptors (for BB2 assay) were routinely grown in Ham's F12 culture medium supplemented with 10% foetal calf serum and 2 mM glutamine. For binding experiments, cells were harvested by trypsinization, and stored frozen at −70° C. in Ham's F12 culture medium containing 5% DMSO until required. On the day of use, cells were thawed rapidly, diluted with an excess of culture medium, and centrifuged for 5 minutes at 2000 g. Cells were resuspended in 50 mM Tris-HCl assay buffer (pH 7.4 at 21° C., containing 0.02% BSA, 40 μg/mL bacitracin, 2 μg/mL chymostatin, 4 μg/mL leupeptin, and 2 μM phosphoramidon), counted, and polytronned (setting 5, 10 sec) before centrifuging for 10 minutes at 28,000 g. The final pellet was resuspended in assay buffer to a final cell concentration of 1.5×10^5/mL. For binding assays, 200 μL aliquots of membranes were incubated with [^125I][Tyr^4]bombesin (<0.1 nM) in the presence and absence of test compounds (final assay volume 250 μL) for 60 minutes and 90 minutes for NMB and GRP receptors, respectively. Nonspecific binding was defined by 1 μM bombesin. Assays were terminated by rapid filtration under vacuum onto Whatman GF/C filters presoaked in 0.2% PEI for >2 hours, and washed 50 mM Tris-HC (pH 6.9 at 21° C.; 6×1 mL). Radioactivity bound was determined using a gamma counter.
(§3) All competition data was analysed using nonlinear regression utilizing iterative curve-plotting procedures in Prism® (GraphPad Software Inc., San Diego, USA). IC50 values were corrected to Ki values using the Cheng-Prusoff equation (Cheng Y., PrusoffW. H., Biochem. Pharmacol. 22: 3099-3108, 1973).

[5] = molecular target: T2, human GRP receptor (BB2) (Homo sapiens, UniProt P30550); experiment: BB2 binding assay ([125I][Tyr4]bombesin, CHO-K1 cell membranes)
T2 construct: expressed in transfected cells; host or cells: CHO-K1
T2 sequence (P30550 whole entry): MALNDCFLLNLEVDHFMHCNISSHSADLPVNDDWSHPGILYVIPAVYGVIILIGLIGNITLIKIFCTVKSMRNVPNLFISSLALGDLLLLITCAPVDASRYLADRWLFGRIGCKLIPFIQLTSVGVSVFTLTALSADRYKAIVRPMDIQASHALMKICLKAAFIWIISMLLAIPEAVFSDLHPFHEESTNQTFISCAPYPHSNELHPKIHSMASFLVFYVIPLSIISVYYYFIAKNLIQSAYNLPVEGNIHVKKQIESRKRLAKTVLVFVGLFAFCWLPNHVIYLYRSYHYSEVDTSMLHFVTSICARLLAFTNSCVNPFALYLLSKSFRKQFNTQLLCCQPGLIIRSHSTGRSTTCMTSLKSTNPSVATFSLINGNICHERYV
Description: as §2, §3

IC50 [4] [µM] | IC50 [5] [µM] | Compound | pelvic-nerve stimulated (PNS) increases in genital (vaginal and clitoral) blood flow [1] | penile erection (erectile response) ([2]; Compound 1 10 mg/kg sc, Compound 3 15 mg/kg sc, conscious rat model) | intracavernosal pressure ([2]; one hour after 10 mg/kg sc Compound 1, 45 minutes after 15 mg/kg sc compound 3, conscious rat) | pelvic nerve-stimulated intracavernosal pressure (ICP), combination with PDE5 inhibitor [3]
– | – | C[C@@](Cc1c[nH]c2ccccc12)(NC(=O)Nc1ccc([N+](=O)[O-])cc1)C(=O)NCC1(c2ccc(N)cc2)CCCCC1 [Compound 3, (2S)-N-{[1-(4-aminophenyl)cyclohexyl]methyl}-3-(1H-indol-3-yl)-2-methyl-2-{[(4-nitroanilino)carbonyl]amino}propanamide] | potent enhancer | pro-erectile | significant increases in intracavernosal pressure | marked enhancement
0.208 | 1.96 | C[C@@](Cc1c[nH]c2ccccc12)(NS(=O)(=O)c1cccc([N+](=O)[O-])c1)C(=O)NCC1(c2ccccn2)CCCCC1 [Example 121] | – | – | – | –
0.44 | 2.25 | C[C@@](Cc1c[nH]c2ccccc12)(NS(=O)(=O)c1cccc(C(F)(F)F)c1)C(=O)NCC1(c2ccccn2)CCCCC1 [Example 124] | – | – | – | –
0.284 | 1.22 | C[C@@](Cc1c[nH]c2ccccc12)(NS(=O)(=O)c1ccc(F)c(Cl)c1)C(=O)NCC1(c2ccccn2)CCCCC1 [Example 156] | – | – | – | –
